Experimental data published in patent US7812022B2 (GlaxoSmithKline LLC, priority 2004, dated 2010).
Like-named read-outs stand apart in the source and are kept apart here.

Columns and labels:
[1] = tested on: BT474 and HN5 tumor cell lines; assay: Methylene blue growth inhibition assay (cellular Method A); type: cell-based, Human; details: 3 days, read-out: Activity (Method): growth inhibition IC50 class
Method in brief: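 Growth inhibition measured by methylene blue staining of biomass (OD 620) after 3 days' compound exposure at 37° C, final DMSO 0.3%. Cell lines: BT474 (10,000/well), HN5 (3,000/well) and Colo205, all in DMEM with 10% FBS; IC50 fitted by nonlinear regression against vehicle-treated wells.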

ErbB2 or EGFR = biological target: T1, ErbB2 or EGFR; assay: ErbB family substrate phosphorylation enzyme assay (HTRF), Method A or Method B; type: biochemical
T1 construct: enzymes purified from a baculovirus expression system; Reagent production was conducted essentially as described in Brignola, P. S., et al, (2002) J. Biol. Chem. 277(2): 1576-1585
Method in brief: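 Baculovirus-expressed EGFR or ErbB2 (0.8 or 10 nM in enzyme mix) phosphorylates biotinylated Peptide C with 20 µM ATP and 0.8 µM peptide (substrate-mix levels), MnCl2, pH 7.5. Reaction ran 90 min at 20 °C with EDTA stop and HTRF anti-phosphotyrosine read. Method A: enzyme added last; Method B: 1 h enzyme–compound preincubation.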

[2] = Method B: enzyme mix pre-incubated with compound 1 hour at 20° C., started with substrate mix
[3] = Method A: substrate mix added first, reaction started with enzyme mix

Row | Compound | IC50 ([1]; Homo sapiens, BT-474, 72 h) | Activity (Method): pIC50 class against ErbB2 or EGFR (ErbB2 or EGFR; [2]) | Activity (Method): pIC50 class against ErbB2 or EGFR (ErbB2 or EGFR; [3]) | IC50 [1]
1 | O=C(Nc1cccc(-c2nn3c(C(F)(F)F)cccc3c2-c2ccnc(Nc3ccccc3)n2)c1)c1c(F)cccc1F [Example 152, N-[3-(3-{2-[Phenylamino]-4-pyrimidinyl}-7-trifluoropyrazolo[1,5-b]pyridin-2-yl)phenyl]-2,6-difluorobenzamide] | 0.1 to 1 µM | ++ (B) (at least one pIC50 measurement greater than 6 against either ErbB2 or EGFR but no measurement greater than pIC50 of 7) | – | –
2 | O=C(Nc1cccc(-c2nn3ccccc3c2-c2ccnc(Nc3ccc4cnccc4c3)n2)c1)c1c(F)cccc1F [Example 65, 2,6-Difluoro-N-(3-{3-[2-(6-isoquinolinylamino)-4-pyrimidinyl]pyrazolo[1,5-a]pyridin-2-yl}phenyl)benzamide] | > 1 µM | ++ (B) (at least one pIC50 measurement greater than 6 against either ErbB2 or EGFR but no measurement greater than pIC50 of 7) | – | –
3 | CN1CCc2ccc(Nc3nccc(-c4c(-c5cccc(NC(=O)c6ccccc6)c5)nn5ccccc45)n3)cc2C1 [Example 63, N-[3-(3-{2-[(2-methyl-1,2,3,4-tetrahydro-7-isoquinolinyl)amino]-4-pyrimidinyl}pyrazolo[1,5-a]pyridin-2-yl)phenyl]benzamide] | < 0.1 µM | +++ (B) (at least one pIC50 measurement of greater than 7 against either ErbB2 or EGFR) | – | –
4 | Cc1ccsc1C(=O)Nc1cccc(-c2nn3ccccc3c2-c2ccnc(Nc3cccc(F)c3)n2)c1 [Example 77, N-[3-(3-{2-[(3-fluorophenyl)amino]-4-pyrimidinyl}pyrazolo[1,5-a]pyridin-2-yl)phenyl]-3-methyl-2-thiophenecarboxamide] | 0.1 to 1 µM | +++ (B) (at least one pIC50 measurement of greater than 7 against either ErbB2 or EGFR) | – | –
5 | S=C(Nc1cccc(-c2nn3ccccc3c2-c2ccnc(Nc3ccc4c(c3)OCCO4)n2)c1)c1ccccc1Cl [Example 8, 2-Chloro-N-(3-{3-[2-(2,3-dihydro-benzo[1,4]dioxin-6-ylamino)-pyrimidin-4-yl]-pyrazolo[1,5-a]pyridin-2-yl}-phenyl)-thiobenzamide] | 0.1 to 1 µM | – | ++ (A) (at least one pIC50 measurement greater than 6 against either ErbB2 or EGFR but no measurement greater than pIC50 of 7) | –
6 | O=C(Nc1cccc(-c2nn3ccccc3c2-c2ccnc(Nc3cccc(F)c3)n2)c1)c1ccc(F)cc1F [Example 19, 2,4-Difluoro-N-(3-{3-[2-(3-fluoro-phenylamino)-pyrimidin-4-yl]-pyrazolo[1,5-a]pyridin-2-yl}-phenyl)-benzamide] | 0.1 to 1 µM | +++ (B) (at least one pIC50 measurement of greater than 7 against either ErbB2 or EGFR) | – | –
7 | Cc1ccc(F)c(C(=O)Nc2cccc(-c3nn4ccccc4c3-c3ccnc(Nc4cccc(F)c4)n3)c2)c1F [Example 72, 2,6-Difluoro-N-[3-(3-{2-[(3-fluorophenyl)amino]-4-pyrimidinyl}pyrazolo[1,5-a]pyridin-2-yl)phenyl]-3-methylbenzamide] | 0.1 to 1 µM | ++ (B) (at least one pIC50 measurement greater than 6 against either ErbB2 or EGFR but no measurement greater than pIC50 of 7) | – | –
8 | N-[3-(3-{2-[4-(4-Cyanophenyl)phenylamino]-4-pyrimidinyl}-7-trifluoropyrazolo[1,5-b]pyridin-2-yl)phenyl]-2,6-difluorobenzamide [Example 93] | – | – | ++ (A) (at least one pIC50 measurement greater than 6 against either ErbB2 or EGFR but no measurement greater than pIC50 of 7) | 0.1 to 1 µM
9 | O=C(Nc1cccc(-c2nn3ccccc3c2-c2ccnc(Nc3cccc(F)c3)n2)c1)c1ccccc1 [Example 146] | 0.1 to 1 µM | +++ (B) (at least one pIC50 measurement of greater than 7 against either ErbB2 or EGFR) | – | –
10 | Cc1cccc(C(=O)Nc2cccc(-c3nn4ccccc4c3-c3ccnc(Nc4cccc(F)c4)n3)c2)c1 [Example 18, N-(3-{3-[2-(3-Fluoro-phenylamino)-pyrimidin-4-yl]-pyrazolo[1,5-a]pyridin-2-yl}-phenyl)-3-methyl-benzamide] | 0.1 to 1 µM | ++ (B) (at least one pIC50 measurement greater than 6 against either ErbB2 or EGFR but no measurement greater than pIC50 of 7) | – | –
11 | CN(CCCOc1ccc(N)cc1F)c1nccc(-c2c(-c3cccc(NC(=O)c4c(F)cccc4F)c3)nn3ccccc23)n1 [Example 130, N-[3-(3-{2-[{3-[(4-Amino-2-fluorophenyl)oxy]propyl}(methyl)amino]-4-pyrimidinyl}pyrazolo[1,5-a]pyridin-2-yl)phenyl]-2,6-difluorobenzamide] | > 1 µM | – | ++ (A) (at least one pIC50 measurement greater than 6 against either ErbB2 or EGFR but no measurement greater than pIC50 of 7) | –
12 | NS(=O)(=O)c1ccc(Nc2nccc(-c3c(-c4cccc(NC(=O)c5c(F)cccc5F)c4)nn4ccccc34)n2)cc1 [Example 32, N-{3-[3-(2-{[4-(aminosulfonyl)phenyl]amino}-4-pyrimidinyl)pyrazolo[1,5-a]pyridin-2-yl]phenyl}-2,6-difluorobenzamide] | < 0.1 µM | +++ (B) (at least one pIC50 measurement of greater than 7 against either ErbB2 or EGFR) | – | –
13 | O=C(Nc1cccc(-c2nn3c(C(F)(F)F)cccc3c2-c2ccnc(Nc3cccc(F)c3)n2)c1)c1c(F)cccc1F [Example 153, N-[3-(3-{2-[3-Fluorophenylamino]-4-pyrimidinyl}-7-trifluoropyrazolo[1,5-b]pyridin-2-yl)phenyl]-2,6-difluorobenzamide] | 0.1 to 1 µM | +++ (B) (at least one pIC50 measurement of greater than 7 against either ErbB2 or EGFR) | – | –
14 | O=C(Nc1cccc(-c2nn3ccccc3c2-c2ccnc(Nc3ccccc3)n2)c1)c1c(F)cccc1F [Example 34, 2,6-Difluoro-N-(3-{3-[2-(phenylamino)-4-pyrimidinyl]pyrazolo[1,5-a]pyridin-2-yl}phenyl)benzamide] | < 0.1 µM | +++ (B) (at least one pIC50 measurement of greater than 7 against either ErbB2 or EGFR) | – | –
15 | COc1ccc(Nc2nccc(-c3c(-c4cccc(NC(=O)c5c(F)cccc5F)c4)nn4c(C)cccc34)n2)cc1F [Example 157, 2,6-Difluoro-N-[3-(3-{2-[(3-fluoro-4-methoxy-phenyl)amino]pyrimidin-4-yl}-7-methylpyrazolo[1,5-a]pyridin-2-yl)phenyl]benzamide] | 0.1 to 1 µM | – | ++ (A) (at least one pIC50 measurement greater than 6 against either ErbB2 or EGFR but no measurement greater than pIC50 of 7) | –
16 | O=C(Nc1cccc(-c2nn3ccccc3c2-c2ccnc(Nc3ccccc3)n2)c1)c1ccco1 [Example 137, Furan-2-carboxylic acid {3-[3-(2-phenylamino-pyrimidin-4-yl)-pyrazolo[1,5-a]pyridin-2-yl]-phenyl}-amide] | 0.1 to 1 µM | – | +++ (A) (at least one pIC50 measurement of greater than 7 against either ErbB2 or EGFR) | –
17 | N#Cc1cc(Nc2nccc(-c3c(-c4cccc(NC(=O)c5c(F)cccc5F)c4)nn4ccccc34)n2)ccc1F [Example 88] | < 0.1 µM | – | +++ (A) (at least one pIC50 measurement of greater than 7 against either ErbB2 or EGFR) | –
